Assay results as given in patent US8933089B2, “HIV inhibiting 5-amido substituted pyrimidines” (Janssen R & D Ireland, priority 2006, dated 2015).

Key:
[1] = test system: HIV strain MDR; assay: Cellular anti-HIV assay in MT4 LTR-EGFP cells, MDR strain; format: cell-based, HIV-1; conditions: Human immunodeficiency virus 1, read-out: MDR pEC50 (converted)
Method: (§1) Because of the increasing emergence of drug resistant HIV strains, the present compounds were tested for their potency against clinically isolated HIV strains harbouring several mutations. These mutations are associated with resistance to reverse transcriptase inhibitors and result in viruses that show various degrees of phenotypic cross-resistance to the currently commercially available drugs such as for instance AZT and delavirdine.
(§2) The antiviral activity of the compound of the present invention has been evaluated in the presence of wild type HIV and HIV mutants bearing mutations at the reverse transcriptase gene. The activity of the compounds is evaluated using a cellular assay which was performed according to the following procedure.
(§3) The human T-cell line MT4 is engineered with Green Fluorescent Protein (GFP) and an HIV-specific promoter, HIV-1 long terminal repeat (LTR). This cell line is designated MT4 LTR-EGFP, and can be used for the in vitro evaluation of anti-HIV activity of investigational compounds. In HIV-1 infected cells, the Tat protein is produced which upregulates the LTR promotor and finally leads to stimulation of the GFP reporter production, allowing to measure ongoing HIV-infection fluorometrically. Analogously, MT4 cells are engineered with GFP and the constitutional cytomegalovirus (CMV) promotor. This cell line is designated MT4 CMV-EGFP, and can be used for the in vitro evaluation of cytotoxicity of investigational compounds. In this cell line, GFP levels are comparably to those of infected MT4 LTR-EGFP cells. Cytotoxic investigational compounds reduce GFP levels of mock-infected MT4 CMV-EGFP cells.
(§4) Effective concentration values such as 50% effective concentration (EC50) can be determined and are usually expressed in μM. An EC50 value is defined as the concentration of test compound that reduces the fluorescence of HIV-infected cells by 50%. The 50% cytotoxic concentration (CC50 in μM) is defined as the concentration of test compound that reduces fluorescence of the mock-infected cells by 50%. The ratio of CC50 to EC50 is defined as the selectivity index (SI) and is an indication of the selectivity of the anti-HIV activity of the inhibitor. The ultimate monitoring of HIV-1 infection and cytotoxicity is done using a scanning microscope. Image analysis allows very sensitive detection of viral infection. Measurements are done before cell necrosis, which usually takes place about five days after infection, in particular measurements are performed three days after infection.
(§5) The columns IIIB, L100I, etc. in the table list the pEC50 values against various strains IIIB, L100I, etc.
MDR refers to a strain that contains mutations L100I, K103N, Y181C, E138G, V1791, L2214F, V278V/I and A327A/V in HIV reverse transcriptase.

[2] = test system: HIV strain Y188L; assay: Cellular anti-HIV assay in MT4 LTR-EGFP cells, mutant Y188L; format: cell-based, HIV-1; conditions: Human immunodeficiency virus 1, read-out: Y188L pEC50 (converted)
Method: as §1, §2, §3, §4, §5

[3] = test system: HIV strain Y181C; assay: Cellular anti-HIV assay in MT4 LTR-EGFP cells, mutant Y181C; format: cell-based, HIV-1; conditions: Human immunodeficiency virus 1, read-out: Y181C pEC50 (converted)
Method: as §1, §2, §3, §4, §5

[4] = test system: HIV strain L100I + K103N; assay: Cellular anti-HIV assay in MT4 LTR-EGFP cells, mutant L100I + K103N; format: cell-based, HIV-1; conditions: Human immunodeficiency virus 1, 72 h, read-out: L100I + K103N pEC50 (converted)
Method: as §1, §2, §3, §4, §5

[5] = test system: HIV strain K103N + Y181C; assay: Cellular anti-HIV assay in MT4 LTR-EGFP cells, mutant K103N + Y181C; format: cell-based, HIV-1; conditions: Human immunodeficiency virus 1, 72 h, read-out: K103N + Y181C pEC50 (converted)
Method: as §1, §2, §3, §4, §5

[6] = test system: HIV strain IIIB (wild type); assay: Cellular anti-HIV assay in MT4 LTR-EGFP cells, strain IIIB (wild type); selectivity index versus cytotoxicity in mock-infected MT4 CMV-EGFP cells; format: cell-based, HIV-1; conditions: for EC50: Human immunodeficiency virus 1, 72 h, wild type HIV strain IIIB, MT4 LTR-EGFP cells, fluorescence, three days after infection, read-out: IIIB pEC50 (converted); for IIIB pSi: selectivity index = ratio of CC50 (mock-infected MT4 CMV-EGFP cells) to EC50 (IIIB), given as p value
Method: as §2, §3, §4, §5
Strain IIIB is wild type HIV strain

[7] = test system: HIV strain K103N; assay: Cellular anti-HIV assay in MT4 LTR-EGFP cells, mutant K103N; format: cell-based, HIV-1; conditions: Human immunodeficiency virus 1, read-out: K103N pEC50 (converted)
Method: as §1, §2, §3, §4, §5

[8] = test system: HIV strain L100I; assay: Cellular anti-HIV assay in MT4 LTR-EGFP cells, mutant L100I; format: cell-based, HIV-1; conditions: Human immunodeficiency virus 1, read-out: L100I pEC50 (converted)
Method: as §1, §2, §3, §4, §5

Compound	melting point [°C]	EC50 [1] [nM]	EC50 [2] [nM]	EC50 [3] [nM]	EC50 [4] [nM]	EC50 [5] [nM]	EC50 [6] [nM]	IIIB pSi [6]	EC50 [7] [nM]	EC50 [8] [nM]
Cc1cc(/C=C/C#N)cc(C)c1Nc1nc(Nc2ccc(C#N)cc2)ncc1C(=O)N1CCOCC1	> 250									
COc1ccccc1NC(=O)c1cnc(Nc2ccc(C#N)cc2)nc1Nc1c(C)cc(/C=C/C#N)cc1C	> 250									
Cc1cc(/C=C/C#N)cc(C)c1Nc1nc(Nc2ccc(C#N)cc2)ncc1C(=O)NCCO [Compound 53]	> 250	501	31.6	20	25.1	31.6	3.16	>3.90	6.31	5.01
COCCNC(=O)c1cnc(Nc2ccc(C#N)cc2)nc1Nc1c(C)cc(/C=C/C#N)cc1C [Compound 54]	> 250	1000	10	10	15.8	12.6	2.51	>4.00	2	3.98
CCN(CCO)C(=O)c1cnc(Nc2ccc(C#N)cc2)nc1Nc1c(C)cc(/C=C/C#N)cc1C [Compound 55]	> 222	2000	63.1	20	79.4	100	1	4.00	3.98	15.8
CONC(=O)c1cnc(Nc2ccc(C#N)cc2)nc1Oc1c(C)cc(/C=C/C#N)cc1C [Compound 62]		3160	39.8	20	39.8	31.6	1.58	4.00	2.51	5.01
